Measurements from US11020451B2, “Methods for treating fibrotic cancers” (Promedior, Inc., priority 2013, dated 2021).

Assays:
Format in all cases: in vivo, human
[1] = test system: myelofibrosis (MF) patients; experiment: Adverse events, tolerability and myelosuppression, Stage 1 study of PRM-151 alone and with ruxolitinib; details: for safety and tolerability: MF patients, alone and in combination with RUX; for treatment-related myelosuppression: after 24 weeks of therapy, all four cohorts
Description: (§1) Recombinant human SAP, in this case the recombinant human SAP known as PRM-151, was administered to myelofibrosis (MF) patients, alone and in combination with ruxolitinib (RUX), to evaluate safety and efficacy in treating bone marrow fibrosis (BMF). Patients with Intermediate-1, Intermediate-2, or high risk MF with grade ≥2 BMF, either not receiving therapy or on a stable dose of RUX, were eligible for this study.
(§2) Twenty-seven patients were assigned to one of four cohorts based on administration of PRM-151 as a monotherapy or as part of a combination therapy. Cohort 1: i) patients who received no treatment for MF in at least two weeks, ii) were administered an initial loading dose of SAP at 10 mg/kg by intravenous infusion (˜1 hour infusion) on days 1, 3, and 5, and iii) thereafter were administered a dose of SAP every four weeks at 10 mg/kg by intravenous infusion (˜1 hour infusion). Cohort 2: i) patients who received no treatment for MF in at least two weeks, ii) were administered an initial loading dose of SAP at 10 mg/kg by intravenous infusion (˜1 hour infusion) on days 1, 3, and 5, and iii) thereafter were administered a dose of SAP every week at 10 mg/kg by intravenous infusion (˜1 hour infusion). Cohort 3: i) patients on a stable dose (e.g., on ruxolitinib for at least 3 months without any dose modifications) of ruxolitinib for at least 12 weeks with no improvement in spleen during the last four weeks, ii) were administered an initial loading dose of SAP at 10 mg/kg by intravenous infusion (˜1 hour infusion) on days 1, 3, and 5 iii) thereafter were administered a dose of SAP every week at 10 mg/kg by intravenous infusion (˜1 hour infusion), and iv) were administered RUX orally at the dose at which they entered the study. Cohort 4: i) patients on a stable dose (e.g., on ruxolitinib for at least 3 months without any dose modifications) of ruxolitinib for at least 12 weeks with no improvement in spleen during the last four weeks, ii) were administered an initial loading dose of SAP at 10 mg/kg by intravenous infusion (˜1 hour infusion) on days 1, 3, and 5 iii) thereafter were administered a dose of SAP every four weeks at 10 mg/kg by intravenous infusion (˜1 hour infusion), and iv) were administered RUX orally at the dose at which they entered the study.
(§3) Patients in each cohort were monitored for improvements in BMF and other MF-related complications including, for example, abnormal blood cell parameters, splenomegaly, and symptoms as assessed by the MPN-SAF. In particular, patients were monitored for overall response rate according to the International Working Group consensus criteria for treatment response in myelofibrosis with myeloid metaplasia (Tefferi A, Cervantes F, Mesa R, et al. Revised response criteria for myelofibrosis: International Working Group-Myeloproliferative Neoplasms Research and Treatment (IWG-MRT) and European LeukemiaNet (ELN) consensus report. Blood. 2013; 122:1395-1398). Patients were also monitored for incidence of adverse events, changes in bone marrow fibrosis according to the European Consensus of Grading Bone Marrow Fibrosis (Thiele J, Kvasnicka H M, Facchetti F, et al. European consensus on grading bone marrow fibrosis and assessment of cellularity. Haematologica 2005; 90:1128-1132.), changes in the modified Myeloproliferative Neoplasma Symptom Assessment Form (MPN-SAF) Score (Emanuel et al. 2012, Journal of Clinical Oncology 30(33): 4098-4103), as well as pharmacokinetic parameters including, for example, maximum drug concentration (Cmax), time to maximum concentration (Tmax), area under the curve (AUC), clearance, and volume of distribution.
The numbers indicated in each column below the grade indicate the number of patients in which the adverse event was reported.

[2] = test system: myelofibrosis (MF) patients; experiment: Bone marrow fibrosis grade (European Consensus) and bone marrow response, same study; details: for number of patients with decrease in bone marrow fibrosis by ≥1 grade: all treatment arms, at 12 or 24 weeks or both; for bone marrow fibrosis grade change: after 12 weeks
Description: as §1, §2, §3
Bone marrow biopsies were obtained at baseline and after three months of therapy and were reviewed. […] As detailed below, these improvements in BMF have borne out upon further analysis of the data across further treatment periods.
Clinical response assessment, including assessment of spleen size, MPN-SAF, and CBC, was carried out every 4 weeks. […]

[3] = test system: myelofibrosis (MF) patients; experiment: Hemoglobin, platelets (CBC) and red blood cell transfusions, same study; details: for hemoglobin response / platelet response: patient 101-005 (Cohort 1), 24-30 weeks of monotherapy
Description: as §1, §2, §3
(§4) Clinical response assessment, including assessment of spleen size, MPN-SAF, and CBC, was carried out every 4 weeks. BM biopsies were carried out at baseline, 12 weeks, and 24 weeks. The IWG-MRT symptom and bone marrow responses observed at 24 weeks of this study are summarized below in Table 3. […]

[4] = test system: myelofibrosis (MF) patients; experiment: MPN-SAF Total Symptom Score and IWG-MRT symptom response, same study; details: for number of patients with measurable symptom response (TSS reduction): alone; for MPN-SAF TSS response: patient 101-005 (Cohort 1), 24-30 weeks of monotherapy
Description: as §1, §2, §3, §4

[5] = test system: myelofibrosis (MF) patients; experiment: Spleen size / spleen response, same study; details: for number of patients with measurable decrease in spleen size: alone; for spleen size response: patient 101-005 (Cohort 1), 24-30 weeks of monotherapy
Description: as §1, §2, §3, §4

[6] = Cohort 1: 10 mg/kg IV Q4W alone, 24 weeks
[7] = Cohort 2: 10 mg/kg IV QW alone, 24 weeks
[8] = a number of patients in all 4 treatment arms

Substance: PRM-151: recombinant human SAP (serum amyloid P, pentraxin-2), α2,3-sialic acid-containing, expressed in CHO cells
- Abdominal pain Gr 3, number of patients [1, 6]: 1
- Fatigue Gr 2, number of patients [1, 6]: 2
- Neuropathy Peripheral Gr 2, number of patients [1, 6]: 1
- Abdominal pain Gr 3, number of patients [1, 7]: 1
- Alanine aminotransferase increased Gr 2, number of patients [1, 7]: 1
- safety and tolerability ([1]; listed as SAP): good tolerability
- safety and tolerability ([1]; listed as rhSAP): safe and well tolerated
- treatment-related myelosuppression [1]: no apparent treatment-related myelosuppression
- treatment-related myelosuppression ([1]; listed as rhSAP): no evidence of clinically significant myelosuppression
- bone marrow responses, number ([2]; Cohort 1: Q4W alone, 24 weeks): 2 bone marrow responses
- bone marrow responses, number ([2]; Cohort 1: Q4W alone, 24 weeks, listed as recombinant human SAP): 2
- bone marrow responses, number ([2]; Cohort 2: QW alone, 24 weeks): 1 bone marrow response
- number of patients with decrease in bone marrow fibrosis by ≥1 grade [2]: 5
- number of patients with decrease in bone marrow fibrosis by ≥1 grade ([2]; listed as recombinant human SAP): five
- bone marrow responses, number ([2]; in 10 additional patients evaluated at 36 weeks, alone or in combination): 3
- number of subjects with improvement in BMF ([2]; of 27 subjects examined, biopsies at baseline and after three months, all cohorts): 5
- bone marrow fibrosis grade change ([2]; one Cohort 1 patient (every four weeks, alone)): Grade 2 to Grade 0
- bone marrow fibrosis grade change ([2]; one Cohort 2 patient (weekly, alone)): Grade 3 to Grade 2
- bone marrow fibrosis grade change (reticulin staining) ([2]; patient 101-005 (Cohort 1), 12 weeks / three months): Grade 2 to Grade 0
- bone marrow fibrosis grade change (reticulin staining) ([2]; patient 108-003 (Cohort 4), six months): Grade 2 to Grade 1
- bone marrow fibrosis grade change (reticulin staining) ([2]; patient 108-003 (Cohort 4), three months): Grade 3 to Grade 2
- durability of response ([2]; patients responsive at the 12- or 24-week mark, following 36 weeks of treatment): continued to respond
- hemoglobin levels [3, 8]: Improvement
- platelet levels [3, 8]: Improvement
- red blood cell transfusions [3, 8]: decrease
- hemoglobin response [3]: increase
- platelet response [3]: increase
- hemoglobin response ([3]; listed as rhSAP): improvement
- platelet response ([3]; listed as rhSAP): improvement
- symptom response ≥8 weeks, number ([4]; Cohort 1: Q4W alone, 24 weeks): 1 symptom response ≥8 weeks
- number of patients with measurable symptom response (TSS reduction) ([4]; Cohort 1: every 4 weeks): 4
- confirmed symptom responses (≥12 weeks), number ([4]; Cohort 2: QW alone, 24 weeks): 2 confirmed symptom responses (≥12 weeks)
- symptom response ≥8 weeks, number ([4]; Cohort 2: QW alone, 24 weeks): 1 symptom response ≥8 weeks
- number of patients with measurable symptom response (TSS reduction) ([4]; Cohort 2: weekly): 1
- additional subjects with 50% decrease in symptom score lasting ≥8 weeks ([4]; less than 50% on Cycle 6 Day 29): Two
- number of patients with reduction in MPN-SAF TSS compared to baseline ([4]; of 18 evaluated patients followed to C6D29 or beyond, all four arms): 10
- number of patients with ≥50% reduction in Total Symptom Score ([4]; on Cycle 6 Day 29, all arms): 5
- MPN-SAF TSS response [4]: decrease
- MPN-SAF TSS response ([4]; listed as rhSAP): reduction
- number of patients with measurable decrease in spleen size ([5]; Cohort 1: every 4 weeks): 3
- spleen response ≥8 weeks, number ([5]; Cohort 2: QW alone, 24 weeks): 1 spleen response ≥8 weeks
- number of patients with measurable decrease in spleen size ([5]; Cohort 2: weekly): 2
- number of patients with ≥20% reduction in spleen volume ([5]; all treatment arms, 24 weeks): five
- number of patients with reduction in spleen size compared to baseline ([5]; of 13 evaluated patients with palpable spleen followed to C6D29 or beyond, all four arms): 10
- reduction in spleen volume ([5]; one patient, Cohort 2 (weekly, alone), lasting 8 weeks): 50%
- spleen size response [5]: decrease
- spleen size response ([5]; listed as rhSAP): reduction
